Source: US7923465B2, “Cannabinoid receptor ligands, pharmaceutical compositions containing them, and process for their preparation” (priority 2005, dated 2011)

Key:
hCB1 = hCB1 (Homo sapiens, UniProt P21554); experiment: In vitro binding assay using hCB1-CHO membranes, [3H]-CP-55,940 displacement (Protocol II); set-up: expressed in transfected cells; host or cells: CHO (hCB1-CHO, generated in-house)
Protocol: II. Protocol for In Vitro Assay Using hCB1-CHO Membranes
The reaction was set up in a total volume of 200 μl in PEI (Poly(ethyleneimine)) (0.2%) precoated Millipore GFB (Glass Fibre-B) filter plates. 1 mM stocks of test compounds were prepared in DMSO and tested at a final concentration of 300 nM. The non-specific binding was determined by 0.5 μM CP-55, 940. […] The assay mixture (with or without the test compound) was incubated at 37° C. for 1 hour. The reaction was stopped by rapid filtration under vacuum and the radioactivity on the filters was measured by liquid scintillation counting.

hCB2 [1] = biological target: T1, hCB2 (Homo sapiens, UniProt P34972); experiment: In vitro binding assay using hCB2-CHO membranes, [3H]-CP-55,940 displacement (Protocol IV); set-up: expressed in transfected cells; host or cells: CHO (hCB2-CHO, generated in-house); details: for % Displacement Protocol IV: hCB2-CHO membranes, [3H]-CP-55,940 displacement
T1 sequence (P34972 whole entry): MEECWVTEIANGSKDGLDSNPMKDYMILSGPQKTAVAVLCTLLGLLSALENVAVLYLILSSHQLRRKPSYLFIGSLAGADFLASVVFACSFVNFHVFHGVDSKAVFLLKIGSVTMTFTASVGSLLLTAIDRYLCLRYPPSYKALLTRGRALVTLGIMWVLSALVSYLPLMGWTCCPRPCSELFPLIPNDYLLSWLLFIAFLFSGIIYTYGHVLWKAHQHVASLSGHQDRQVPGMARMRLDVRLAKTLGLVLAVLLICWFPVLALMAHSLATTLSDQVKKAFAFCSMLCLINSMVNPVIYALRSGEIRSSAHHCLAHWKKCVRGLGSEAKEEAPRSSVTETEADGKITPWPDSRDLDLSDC
Procedure, shortened: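 Displacement of [3H]-CP-55,940 (0.75 nM) from membranes of CHO cells expressing human CB2 (25-50 μg) was measured in Tris-BSA buffer pH 7.4 with 5 mM MgCl2, 1 mM EDTA, 0.1% BSA, 1 h at 30 °C. Test compounds were at 300 nM final; nonspecific binding defined with 0.5 μM CP-55,940. Values are % displacement of specific binding.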

CB1 [2] = biological target: T2, CB1 (Rattus norvegicus, UniProt P20272); experiment: GTPγS binding assay, CB1 functional assay in rat cerebellar membrane (Protocol VIII); format: biochemical; set-up: 10 μg rat cerebellum membrane; from tissue; host or cells: rat cerebellum membrane, prepared in-house
T2 sequence (P20272 whole entry): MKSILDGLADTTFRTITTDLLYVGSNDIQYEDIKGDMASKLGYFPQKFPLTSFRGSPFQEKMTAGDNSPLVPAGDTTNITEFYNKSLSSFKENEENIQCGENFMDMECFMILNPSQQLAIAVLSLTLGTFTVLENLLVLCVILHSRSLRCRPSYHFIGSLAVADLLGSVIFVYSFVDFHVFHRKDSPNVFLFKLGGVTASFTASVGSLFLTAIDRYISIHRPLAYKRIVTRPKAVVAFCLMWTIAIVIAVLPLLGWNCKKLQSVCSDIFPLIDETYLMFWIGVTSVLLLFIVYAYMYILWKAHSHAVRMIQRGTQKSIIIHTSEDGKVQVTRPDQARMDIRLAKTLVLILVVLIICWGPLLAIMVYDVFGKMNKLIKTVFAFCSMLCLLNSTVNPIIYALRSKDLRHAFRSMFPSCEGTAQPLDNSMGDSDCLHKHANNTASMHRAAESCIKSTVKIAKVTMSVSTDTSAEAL
Procedure, shortened: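 Rat cerebellar membranes (10 μg) incubated 1 h at 30 °C with 0.2 nM [35S]GTPγS, 50 μM GDP, and compound at 1 μM or 300 nM, alone or with 1 μM WIN 55,212-2, in Tris/MgCl2/EGTA/NaCl pH 7.4. Filter-bound radioactivity counted; percent stimulation calculated against basal specific binding (nonspecific defined by 10 μM GTPγS).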

CB1 [3] = biological target: T2, CB1; experiment: Rat CB1 receptor binding using brain membrane, [3H]SR141716A displacement (Protocol I); set-up: CB1 receptor present in a rat brain membrane preparation; from tissue; host or cells: rat brain membrane; inhibition: dose or concentration left out as unconfirmed; details: for % Displacement Protocol I: rat brain membrane, [3H]SR141716A displacement
hCB2 [4] = biological target: T1, hCB2; experiment: Agonism of CB2 receptors expressed in CHO cells, forskolin cAMP assay (Protocol IX.2); format: cell-based; set-up: expressed in transfected cells; host or cells: CHO (h-CB2/CHO, G418-selected); details: concentration not given
Protocol: IX. Assay for Determining Agonist and Antagonist Activity to CB1 and CB2 Receptors
2. Agonism of CB1/CB2 Receptors Expressed in CHO Cells
h-CB1/CHO or h-CB2/CHO cells were grown in HAM's F12 DMEM medium (Sigma) with 10% FBS (Hyclone), 1% penicillin-streptomycin solution and 400 μg/ml of G418 (Sigma). 5000 cells were seeded per well in a 96 well plate and incubated for 24 hours at 37° C. in 5% CO2. On the day of assay, cells were washed with warm Krebs Buffer containing 0.1% fatty acid free (FAF) BSA (Sigma) and re-suspended in the same buffer containing 1 mM IBMX. Test compound or CP 55,940 as a reference compound (30 nM final concentration for CB1 testing and 10 μM of the same for CB2 testing) diluted in FFB+IBMX+Krebs buffer was added to the cells followed by forskolin addition (10 uM final concentration) and incubated for 30 minutes at room temperature. At the end of incubation, cells were lysed using lysis reagent from the cAMP estimation kit and cAMP was quantitated by chemiluminescence method described in the manufacturer's instructions (DiscoveRX). EC50 values were calculated from dose response curves by nonlinear regression analysis using PRISM software.

[5] = GTPγS binding over basal, rat cerebellar membrane, tested at 1 uM
[6] = GTPγS binding, tested at 1 uM in presence of 1 μM WIN 55,212-2

Chain of hCB1 (P21554 whole entry): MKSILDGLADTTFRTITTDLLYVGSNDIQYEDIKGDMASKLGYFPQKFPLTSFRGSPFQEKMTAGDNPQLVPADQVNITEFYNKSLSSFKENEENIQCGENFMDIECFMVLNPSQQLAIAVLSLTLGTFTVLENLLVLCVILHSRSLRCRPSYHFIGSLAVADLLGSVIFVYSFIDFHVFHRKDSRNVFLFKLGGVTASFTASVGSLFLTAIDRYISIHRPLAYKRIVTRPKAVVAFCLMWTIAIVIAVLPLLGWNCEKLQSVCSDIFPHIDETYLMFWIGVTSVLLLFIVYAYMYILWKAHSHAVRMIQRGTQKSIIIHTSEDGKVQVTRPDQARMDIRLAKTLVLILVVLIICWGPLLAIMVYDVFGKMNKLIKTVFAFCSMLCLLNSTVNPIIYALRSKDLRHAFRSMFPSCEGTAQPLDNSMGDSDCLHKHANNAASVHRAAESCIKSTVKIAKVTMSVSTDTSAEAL

| Structure (SMILES) | % Displacement Protocol II (hCB1) | % Displacement Protocol IV (hCB2 [1]) | Per Se % Stimulation (CB1 [2]; [5]) | % Inhibition of WIN-55212-2 induced stimulation (CB1 [2]; [6]) | % Displacement Protocol I (CB1 [3]) | further results |
| --- | --- | --- | --- | --- | --- | --- |
| O=C(NN1CCCCC1)c1nn(-c2ccccc2Cl)c2c1C1CC3CC(C1)CC2C3 [Example 184, N(7)-piperidino-5-(2′-chlorophenyl)-5,6-diazatetracyclo[7.3.1.1^3,11.0^4,8]tetradeca-4(8)-6-diene-7-carboxamide] | 3.24% | 8.76% | 9.5% | 75.9% | 41% |  |
| O=C(NN(c1ccccc1)c1ccccc1)c1nn(-c2ccc(Cl)cc2)c2c1C1CCC2C1 (centres unmarked) [Example 236] | 55.25% |  | 8.0% | 83.0% | 75.5% |  |
| O=C(NN1CCCCC1)c1nn(-c2ccccc2Br)c2c1C1CC3CC(C1)CC2C3 [Example 101, N(7)-Piperidino-5-(2-bromophenyl)-5,6-diazatetracyclo[7.3.1.1^3,110^4,8]tetradeca-4(8),6-diene-7-carboxamide] | 5.75% | 0% |  |  | 28.8% |  |
| C[C@H](NC(=O)c1nn(-c2ccc(Cl)cc2Cl)c2c1C1CCC2C1)c1ccccc1 (stereo partly drawn) [Example 252, N(3)-[S-(1-phenylethyl)]-1-(2,4-dichlorophenyl)-4,5,6,7-tetrahydro-1H-4,7-methano-indazole-3-carboxamide] | 74.52% |  |  |  | 99.8% | Per Se % Stimulation (CB1 [2]; GTPγS binding over basal, rat cerebellar membrane, tested at 300 nM): 48.2%; % Inhibition of WIN-55212-2 induced stimulation (CB1 [2]; GTPγS binding, tested at 300 nM in presence of 1 μM WIN 55,212-2): 58.8% |
| O=C(NCCc1ccccc1)c1nn(-c2ccc(Cl)cc2)c2c1C1CC3CC(C1)CC2C3 [Example 136, N(7)-(2-Phenylethyl)-5-(4-chlorophenyl)-5,6-diazatetracyclo[7.3.1.1^3,11.0^4,8]tetradeca-4(8)-6-diene-7-carboxamide] | 1.01% | 15.44% |  |  | 31.3% |  |
| CN(NC(=O)c1nn(-c2ccc(Cl)cc2Cl)c2c1C1CCC2c2ccccc21)c1ccc(Cl)cc1Cl (centres unmarked) [Example 505, N(12)-{N′-[(2,4-Dichlorophenyl)-N′-methyl]amino}-10-(2,4-dichlorophenyl)-10,11-diazatetracyclo[6.5.2.0^2,7.0^9,13]pentadeca-2,4,6,9(13),11-pentaene-12-carboxamide] | 77.51% |  | 15.6% | 94.4% | 90.6% |  |
| O=C(NCc1ccccc1)c1nn(-c2ccc(Cl)cc2Cl)c2c1C1CC3CC(C1)CC2C3 [Example 179, N(7)-Benzyl-5-(2′,4′-dichlorophenyl)-5,6-diazatetracyclo[7.3.1.1^3,11.0^4,8]tetradeca-4(8)-6-diene-7-carboxamide] | 30.88% | 18.21% | 7.8% | 89.7% | 48% |  |
| O=C(c1nn(-c2ccccc2)c2c1C1CC3CC(C1)CC2C3)N1CCCCC1 [Example 171, N(7)-phenyl-6,7-diazatetracyclo[7.3.1.1^3,11.0^4,8]tetradeca-4(8)-5-dien-5-yl-piperidino methanone] | 19.37% | 0.56% |  |  | 0% |  |
| Cn1nc2c(c1C(=O)NN1CCCCC1)C1CC3CC(CC2C3)C1 [Example 189a, N(7)-Piperidino-6-methyl-5,6-diazatetracyclo[7.3.1.1^3,11.0^4,8]tetradeca-4(8)-6-diene-7-carboxamide] | 21.2% | 0.81% |  |  | 7% |  |
| O=C(NC1CCCCC1)c1nn(-c2ccccc2Cl)c2c1C1CC3CC(C1)CC2C3 [Example 183, N(7)-cyclohexyl-5-(2-chlorophenyl)-5,6-diazatetracyclo[7.3.1.1^3,11.0^4,8]tetradeca-4(8)-6-diene-7-carboxamide] | 17.24% | 18.23% | 13.0% | 72.5% | 45.9% |  |
| O=C(NNc1ccc(Cl)cc1)c1nn(-c2ccc(Cl)cc2)c2c1C1CC3CC(C1)CC2C3 [Example 125] | 22.07% | 5.04% |  |  | 52.7% |  |
| Cn1nc(C(=O)NN2CCCCC2)c2c1C1CC3CC(CC2C3)C1 [Example 189b, N(7)-Piperidino-5-methyl-5,6-diazatetracyclo[7.3.1.1^3,11.0^4,8]tetradeca-4(8)-6-diene-7-carboxamide] | 24.03% | 2.56% |  |  | 3% |  |
| O=C(c1n[nH]c2c1C1CC3CC(CC2C3)C1)N1CCCCC1 [Example 188, 6,7-Diazatetracyclo[7.3.1.1^3,11.0^4,8]tetradeca-4(8)-5-dien-5-yl-piperidinomethanone] | 12.5% | 36.01% |  |  | 19.5% |  |
| O=C(NN1CCCCC1)c1n[nH]c2c1C1CC3CC(CC2C3)C1 [Example 187, N(7)-Piperidino-5,6-diazatetracyclo[7.3.1.1^3,11.0^4,8]tetradeca-4(8)-6-diene-7-carboxamide] | 15.66% | 0.7% |  |  | 6.0% |  |
| O=C(NC1CCCCC1)c1nn(-c2ccc(Cl)cc2)c2c1C1CC3CC(C1)CC2C3 [Example 106, N(7)-Cyclohexyl-5-(4-chlorophenyl)-5,6-diazatetracyclo[7.3.1.1^3,11.0^4,8]tetradeca-4(8),6-diene-7-carboxamide] |  |  |  |  |  | melting point: 162 °C; hCB2 Agonism (hCB2 [4]): 0%; inhibition at 0.3 µM (hCB2 [1]; 1 h, read-out: % Displacement Protocol IV): 75.1%; activation at 1 µM (CB1 [2]; 1 h, GTPγS binding over basal, rat cerebellar membrane, tested at 1 uM, read-out: Per Se % Stimulation): -10%; inhibition at 1 µM (CB1 [2]; GTPγS binding, tested at 1 uM in presence of 1 μM WIN 55,212-2, read-out: % Inhibition of WIN-55212-2 induced stimulation): 65.3%; inhibition (CB1 [3]; 1 h, read-out: % Displacement Protocol I, rat brain membrane, [3H]SR141716A displacement): 78.6% |
| O=C(NCc1ccccc1)c1nn(-c2ccccc2)c2c1C1CC3CC(C1)CC2C3 [Example 170, N(7)-Benzyl-5-phenyl-5,6-diazatetracyclo[7.3.1.1^3,11.0^4,8]tetradeca-4(8)-6-diene-7-carboxamide] | 29.49% | 27.16% | 17.5% | 80.3% | 40.0% |  |
| O=C(c1nn(-c2ccc(Cl)cc2)c2c1C1CCC2C1)N1CCCCC1 (centres unmarked) [Example 210, 1-(4-Chlorophenyl)-4,5,6,7-tetrahydro-1H-4,7-methano-indazol-3-yl piperidino methanone] | 11.58% | 17.69% |  |  | 12.6% |  |
